PubChem BioAssay (NCI)
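Test compounds were applied to cells in 96-well plates for 48 hours at 5 doses. GI50 = concentration required for 50% inhibition of growth. TGI is the concentration that stops growth completely.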

How the values were obtained:
Assay in all cases: NCI tumour cell line growth inhibition, 48 h
KM12 colon = tested on: KM12 colon
A498 renal = tested on: A498 renal
COLO 205 colon = tested on: COLO 205 colon
SW-620 colon = tested on: SW-620 colon
SK-MEL-2 melanoma = tested on: SK-MEL-2 melanoma
HL-60(TB) leukemia = tested on: HL-60(TB) leukemia
NCI-H522 lung = tested on: NCI-H522 lung
MCF7 breast = tested on: MCF7 breast
NCI/ADR-RES ovarian = tested on: NCI/ADR-RES ovarian
MDA-MB-435 = tested on: MDA-MB-435

SMILES | TGI (KM12 colon) [µM] | TGI (A498 renal) [µM] | TGI (COLO 205 colon) [µM] | TGI (SW-620 colon) [µM] | TGI (SK-MEL-2 melanoma) [µM] | TGI (HL-60(TB) leukemia) [µM] | TGI (NCI-H522 lung) [µM] | TGI (MCF7 breast) [µM] | TGI (NCI/ADR-RES ovarian) [µM] | TGI (MDA-MB-435) [µM] | GI50 (MCF7 breast) [µM] | GI50 (KM12 colon) [µM] | GI50 (A498 renal) [µM] | GI50 (NCI/ADR-RES ovarian) [µM] | GI50 (COLO 205 colon) [µM] | GI50 (SW-620 colon) [µM] | GI50 (SK-MEL-2 melanoma) [µM] | GI50 (HL-60(TB) leukemia) [µM] | GI50 (MDA-MB-435) [µM] | GI50 (NCI-H522 lung) [µM]
COCC(=O)CP(=O)(OC)OC | > 100 | > 100 | > 100 | > 100 | > 100 | > 100 | > 100 | – | – | – | – | – | – | – | – | – | – | – | – | –
CCOC(=O)C1(Cc2ccccc2)CCCCCN1 (stereo not drawn) | – | – | > 100 | > 100 | – | > 100 | – | – | – | – | – | – | – | – | – | – | – | – | – | –
CCCCCC(=O)c1ccc2[nH]c3c(C)cc([N+](=O)[O-])c(C)c3c2c1 | > 100 | – | > 100 | > 100 | > 100 | > 100 | > 100 | – | – | – | – | – | – | – | – | – | – | – | – | –
O=C1CSC(/C(=C\c2ccc(Cl)cc2)c2nc3ccccc3[nH]2)=N1 | 28.5 | 16 | 36.4 | 35.6 | 34.5 | > 68.8 | 12.6 | 28.7 | 36.9 | 32.6 | – | – | – | – | – | – | – | – | – | –
COc1cccc(C(=O)N2CCc3ccccc32)c1OC | > 100 | – | > 100 | > 100 | > 100 | 91.1 | > 100 | – | – | – | – | – | – | – | – | – | – | – | – | –
Cc1c(C(=O)NCCO)[n+](=O)c2cc(Cl)ccc2n1[O-] | > 100 | > 100 | > 100 | > 100 | – | > 100 | – | – | – | – | – | – | – | – | – | – | – | – | – | –
CCOc1ccc(/C=C(\Cl)c2ccc(OC)c(OC)c2)cc1 | – | > 100 | > 100 | > 100 | – | > 100 | 74.1 | – | – | – | – | – | – | – | – | – | – | – | – | –
NNc1nc2ccccc2c(=O)n1NC(=O)C(=O)Nc1cccc(C(F)(F)F)c1 | > 100 | > 100 | – | > 100 | > 100 | > 100 | > 100 | > 100 | > 100 | > 100 | – | – | – | – | – | – | – | – | – | –
CN(C)CCCN1c2nc3ccccc3cc2Sc2cc3ccccc3nc21 | 2.88 | 2.96 | 2.82 | 2.88 | 2.84 | 2.79 | – | 2.18 | 5.39 | 2.96 | 0.859 | 1.51 | 1.57 | 1.88 | 1.24 | 1.48 | 1.3 | 1.34 | 1.51 | –
COC1OC(CO)C(O)C(O)C1Br (stereo not drawn) | > 100 | > 100 | > 100 | > 100 | – | > 100 | > 100 | – | – | – | – | – | – | – | – | – | – | – | – | –
CN(CN1C(=O)C2Cc3ccccc3CN2C1=O)c1ccccn1 (stereo not drawn) | > 100 | > 100 | > 100 | > 100 | > 100 | > 100 | > 100 | – | – | – | – | – | – | – | – | – | – | – | – | –
CC(=O)O[C@H]1CC[C@@]2(C)C(=CC[C@H]3[C@@H]4C/C(=C\c5cccc(OCCN6CCOCC6)c5)[C@H](OC(C)=O)[C@@]4(C)CC[C@@H]32)C1 | 14.2 | 29.1 | 19.4 | 15.7 | 24.5 | 14.6 | 27.5 | 84.5 | – | 23.1 | 10.4 | 3.84 | 15.3 | – | 6.46 | 4.87 | 12.2 | 3.61 | 11.1 | 12.9
CC(=O)OC1CC2C(C)(C)C(=O)C=C[C@]2(C)C2CCC3(C)C(c4ccoc4)C(=O)[C@H]4O[C@]43[C@]12C (stereo partly drawn) | – | 36.8 | > 100 | 59.2 | 43.4 | 42.3 | 36.9 | – | – | – | – | – | – | – | – | – | – | – | – | –
C1CCN(c2nsc(N3CCCCC3)n2)CC1 | > 100 | > 100 | – | > 100 | > 100 | > 100 | > 100 | – | – | – | – | – | – | – | – | – | – | – | – | –
CCOC(=O)c1[nH]c(-c2ccc(Cl)cc2)cc1-c1cccnc1 | > 100 | 9.37 | 7.49 | > 100 | – | – | – | > 100 | > 100 | 1.42 | 0.453 | 0.595 | 0.811 | 0.511 | 0.398 | 2.87 | – | – | 0.279 | –
CN(C)C(N)=NC#N | > 100 | > 100 | > 100 | 38.2 | > 100 | > 100 | > 100 | – | – | – | – | – | – | – | – | – | – | – | – | –
C(CCC[Te][Te]CCCCCCOC1CCCCO1)CCOC1CCCCO1 (stereo not drawn) | 28.9 | 37.8 | 36.5 | 45.2 | 28.3 | 37.9 | – | – | – | – | – | – | – | – | – | – | – | – | – | –
C=C=C(CC)C(C(=O)OC)N(CC)CC (stereo not drawn) | > 100 | > 100 | > 100 | > 100 | – | > 100 | > 100 | – | – | – | – | – | – | – | – | – | – | – | – | –
N=c1nnc(=O)c2c(s1)-n1ncc(C(=O)O)c1NN2 | > 100 | – | > 100 | > 100 | – | > 100 | > 100 | – | – | – | – | – | – | – | – | – | – | – | – | –
Nc1ccc2c(c1)NCCN2 | > 100 | – | > 100 | – | > 100 | 89.4 | > 100 | > 100 | > 100 | > 100 | – | – | – | – | – | – | – | – | – | –
Cc1ccc(S(=O)(=O)NC(=O)NC23CC4CC(CC(F)(C4)C2)C3)cc1 | > 100 | > 100 | > 100 | > 100 | > 100 | > 100 | > 100 | – | – | – | – | – | – | – | – | – | – | – | – | –
O=C(O)/C(=C/c1c(O)ccc2ccccc12)c1csc(-c2nc(/C(=C\c3c(O)ccc4ccccc34)C(=O)O)cs2)n1 | 53.2 | 41.7 | 31.4 | 59 | 10.2 | 26.4 | – | – | – | – | – | – | – | – | – | – | – | – | – | –
CC(=O)O[C@H]1CC[C@@]2(C)C(=CC[C@H]3C4=CC=C(C(C)=O)[C@@]4(C)CCC32)C1 (stereo partly drawn) | > 100 | > 100 | 39.6 | 52.7 | – | > 100 | 46.1 | – | – | – | – | – | – | – | – | – | – | – | – | –
C(=N\OCc1ccccc1)/c1ncccc1C1OCCO1 | > 100 | – | > 100 | > 100 | > 100 | > 100 | > 100 | – | – | – | – | – | – | – | – | – | – | – | – | –
O=C1O/C(=C(\Br)c2cccc3ccccc23)c2ccccc21 | > 55.2 | 34.6 | > 53.8 | > 58.3 | > 61 | 47.7 | 33 | – | – | – | – | – | – | – | – | – | – | – | – | –
COc1cc(/C=C\[N+](=O)[O-])ccc1OCc1ccccc1 | 10.8 | – | 3.37 | 4.02 | 14.6 | 6.16 | 6.62 | 3.27 | 24.9 | 10.3 | 1.44 | 3.06 | – | 3.5 | 1.67 | 1.49 | 3.67 | 2.48 | 2.37 | 2.04
